pEC50: −log10 of the molar value.
The compounds below were run on HBV replication in HepG2.2.15 cells (assay: HBV replication inhibition assay (BDNA assay)). Conditions: HepG2.2.15 cells, 6 days, encapsidated HBV DNA in supernatant; read-out: Activity in BDNA-assay (EC50).
Type: cell-based
Text: HBV replication inhibition by the compounds of this invention could be determined in cells infected or transfected with HBV, or cells with stably integrated HBV, such as HepG2.2.15 cells (Sells et al. 1987). In this example, HepG2.2.15 cells were maintained in cell culture medium containing 10% fetal bovine serum (FBS), Geneticin, L-glutamine, penicillin and streptomycin. HepG2.2.15 cells could be seeded in 96-well plates at a density of 40,000 cells/well and be treated with serially diluted compounds at a final DMSO concentration of 0.5% either alone or in combination by adding drugs in a checker box format. Cells were incubated with compounds for three days, after which medium was removed and fresh medium containing compounds was added to cells and incubated for another three days. At day 6, supernatant was removed and treated with DNase at 37° C. for 60 minutes, followed by enzyme inactivation at 75° C. for 15 minutes. Encapsidated HBV DNA was released from the virions and covalently linked HBV polymerase by incubating in lysis buffer (Affymetrix QS0010) containing […] proteinase K at 50° C. for 40 minutes. HBV DNA was denatured by addition of 0.2 M NaOH and detected using a branched DNA (BDNA) QuantiGene assay kit according to manufacturer recommendation (Affymetrix). HBV DNA levels could also be quantified using qPCR, based on amplification of encapsidated HBV DNA extraction with QuickExtraction Solution (Epicentre Biotechnologies) and amplification of HBV DNA using HBV specific PCR probes that can hybridize to HBV DNA and a fluorescently labeled probe for quantitation. In addition, cell viability of HepG2.2.15 cells incubated with test compounds alone or in combination was determined by using CellTitre-Glo reagent according to the manufacturer protocol (Promega). The mean background signal from wells containing only culture medium was subtracted from all other samples, and percent inhibition at each compound concentration was calculated by normalizing to signals from HepG2.2.15 cells treated with 0.5% DMSO using equation E1. % inhibition=(DMSOave−Xi)/DMSOave×100% E1: • where DMSOave is the mean signal calculated from the wells that were treated with DMSO control (0% inhibition control) and Xi is the signal measured from the individual wells. EC50 values, effective concentrations that achieved 50% inhibitory effect, were determined by non-linear fitting using Graphpad Prism software (San Diego, Calif.) and equation E2 Y=Ymin+(Ymax−Ymin)/(1+10(Log EC50−X)×HillSlope) E2: • where Y represents percent inhibition values and X represents the logarithm of compound concentrations.
Selected compounds of the invention were assayed in the HBV replication assay (BDNA assay), as described above and a representative group of these active compounds is shown in Table 3.
In the case of `CC1Cc2[nH]nc(-c3ccccc3)c2CN1C(=O)Nc1cccc(Cl)c1` (single isomer, unassigned) [317 (E1), N-(3-chlorophenyl)-6-methyl-3-phenyl-1,4,6,7-tetrahydropyrazolo[4,3-c]pyridine-5-carboxamide], the pEC50 was 7.00 to 8.00.
With `CC1Cc2[nH]nc(-c3cscn3)c2CN1C(=O)Nc1cccc(Br)c1` (stereo not shown) [918 E2] the pEC50 was 7.00 to 8.00.
For `CC1Cc2[nH]nc(-c3ccccc3)c2CN1C(=O)Nc1cccc(Cl)c1` (single isomer, unassigned) [317 (E2), N-(3-chlorophenyl)-6-methyl-3-phenyl-1,4,6,7-tetrahydropyrazolo[4,3-c]pyridine-5-carboxamide], the pEC50 was 6.30 to 7.00.
For `CC1Cc2[nH]nc(-c3cscn3)c2CN1C(=O)Nc1ccc(F)c(C#N)c1` (stereo not shown) [922 E2], the pEC50 was 7.00 to 8.00.

Same assay, conditions: Hepatitis B virus, 144 h; HepG2.2.15 cells, 10 μM, 6 days, encapsidated HBV DNA in supernatant; read-out: Activity in BDNA-assay (activity at 10 μM)
In the case of `O=C(COc1ccc(Cl)cc1)N1CCc2[nH]nc(-c3ccccc3)c2C1` [Compound 150], the inhibition at 10 µM was greater than 50%.
`O=C(OCc1ccccc1)N1CCc2[nH]nc(-c3ccccc3)c2C1` [Compound 024, benzyl 3-phenyl-1,4,6,7-tetrahydropyrazolo[4,3-c]pyridine-5-carboxylate] was tested, and the inhibition at 10 µM was greater than 50%.
Work on `O=C(COc1ccccc1Cl)N1CCc2[nH]nc(-c3ccccc3)c2C1` [Compound 148] yielded an inhibition at 10 µM greater than 50%.
For `N#Cc1ccc(OCC(=O)N2CCc3[nH]nc(-c4ccccc4)c3C2)cc1` [Compound 156], the inhibition at 10 µM was greater than 50%.
`N#Cc1ccc(Cl)cc1NC(=O)N1CCc2[nH]nc(-c3ccccc3)c2C1` [Compound 201] was tested, and the inhibition at 10 µM was greater than 50%.
Work on `N#Cc1ccccc1OCC(=O)N1CCc2[nH]nc(-c3ccccc3)c2C1` [Compound 154] yielded an inhibition at 10 µM greater than 50%.
Work on `O=C(COc1ccccc1F)N1CCc2[nH]nc(-c3ccccc3)c2C1` [Compound 142] yielded an inhibition at 10 µM greater than 50%.
Compound `CC(OC(=O)N1CCc2[nH]nc(-c3ccccc3)c2C1)c1ccccc1` (stereo not shown) [Compound 016, 1-phenylethyl 3-phenyl-1,4,6,7-tetrahydropyrazolo[4,3-c]pyridine-5-carboxylate] has an inhibition at 10 µM greater than 50%.
Compound `O=C(Nc1ccc(Br)c(Cl)c1)N1CCc2[nH]nc(-c3ccccc3)c2C1` [Compound 204] has an inhibition at 10 µM greater than 50%.
Compound `O=C(COc1cccc(C(F)(F)F)c1)N1CCc2[nH]nc(-c3ccccc3)c2C1` [Compound 164] has an inhibition at 10 µM greater than 50%.

Same assay, conditions: Hepatitis B virus, HepG2.2.15, 144 h, HepG2.2.15 cells, 6 days, encapsidated HBV DNA in supernatant; read-out: Activity in BDNA-assay (EC50)
With `O=C(Nc1cccc(Cl)c1)N1CCc2[nH]nc(-c3ncccn3)c2C1` [Compound 289, N-(3-chlorophenyl)-3-pyrimidin-2-yl-1,4,6,7-tetrahydropyrazolo[4,3-c]pyridine-5-carboxamide] the pEC50 was 7.00 to 8.00.
With `Cn1nccc1-c1n[nH]c2c1CN(C(=O)Nc1cccc(Cl)c1)CC2` [Compound 496] the pEC50 was 6.30 to 7.00.
With `CC1Cc2[nH]nc(-c3cscn3)c2CN1C(=O)Nc1ccnc(Br)c1F` (stereo not shown) [921 E1] the pEC50 was 7.00 to 8.00.
`O=C(Nc1ccc(F)c(Cl)c1F)N1CCc2[nH]nc(-c3ccccc3)c2C1` [Compound 205] showed a pEC50 of 6.30 to 7.00.
In the case of `O=C(Nc1cccc(Cl)c1)N1CCc2[nH]nc(-c3cncnc3)c2C1` [Compound 291, N-(3-chlorophenyl)-3-pyrimidin-5-yl-1,4,6,7-tetrahydropyrazolo[4,3-c]pyridine-5-carboxamide], the pEC50 was 6.30 to 7.00.
`O=C(Nc1cccc(Cl)c1)N1CCc2[nH]nc(-c3ccc(F)cc3)c2C1` [Compound 278, N-(3-chlorophenyl)-3-(4-fluorophenyl)-1,4,6,7-tetrahydropyrazolo[4,3-c]pyridine-5-carboxamide] showed a pEC50 of 6.30 to 7.00.
`Cc1c(Cl)cccc1NC(=O)N1CCc2[nH]nc(-c3ccccc3)c2C1` [Compound 192] showed a pEC50 of 6.30 to 7.00.
`Cn1cc(-c2n[nH]c3c2CN(C(=O)Nc2cccc(Cl)c2)CC3)cn1` [Compound 495, N-(3-chlorophenyl)-3-(1-methylpyrazol-4-yl)-1,4,6,7-tetrahydropyrazolo[4,3-c]pyridine-5-carboxamide] gave a pEC50 of 5.82 to 6.00.
`O=C(Nc1cccc(Cl)c1)N1CCc2[nH]nc(-c3ccn[nH]3)c2C1` [Compound 497] showed a pEC50 of 6.30 to 7.00.
`N#Cc1cccc(NC(=O)N2CCc3[nH]nc(-c4ccccc4)c3C2)c1F` [Compound 559] showed a pEC50 of 7.00 to 8.00.
For `CC1Cc2[nH]nc(-c3cscn3)c2CN1C(=O)Nc1ccc(F)c(Cl)c1` (stereo not shown) [917 E1, N-(3-chloro-4-fluoro-phenyl)-6-methyl-3-thiazol-4-yl-1,4,6,7-tetrahydropyrazolo[4,3-c]pyridine-5-carboxamide], the pEC50 was 7.00 to 8.00.
`CC(Oc1ccccc1)C(=O)N1CCc2[nH]nc(-c3ccccc3)c2C1` (stereo not shown) [Compound 014, 2-phenoxy-1-(3-phenyl-1,4,6,7-tetrahydropyrazolo[4,3-c]pyridin-5-yl)propan-1-one] showed a pEC50 of 5.82 to 6.00.
`O=C(Nc1cccc(Cl)c1)N1CCc2[nH]nc(-c3ccc(F)nc3)c2C1` [Compound 473, N-(3-chlorophenyl)-3-(6-fluoro-3-pyridyl)-1,4,6,7-tetrahydropyrazolo[4,3-c]pyridine-5-carboxamide] gave a pEC50 of 6.00 to 6.30.
`O=C(Nc1cccc(Cl)c1)N1CCc2[nH]nc(-c3ccncc3)c2C1` [Compound 287] showed a pEC50 of 6.30 to 7.00.
For `O=C(Nc1cccc(C2CC2)c1)N1CCc2[nH]nc(-c3ccccc3)c2C1` [Compound 556], the pEC50 was 6.30 to 7.00.
For `O=C(Nc1cccc(Cl)c1Cl)N1CCc2[nH]nc(-c3ccccc3)c2C1` [Compound 190], the pEC50 was 6.00 to 6.30.
Compound `CC1Cc2[nH]nc(-c3cscn3)c2CN1C(=O)Nc1cccc(Br)c1F` (stereo not shown) [920 E1] has a pEC50 of 7.00 to 8.00.
Work on `CC1c2c(-c3ccccc3)n[nH]c2CCN1C(=O)Nc1cccc(Cl)c1` (single isomer, unassigned) [318 (E1), N-(3-chlorophenyl)-4-methyl-3-phenyl-1,4,6,7-tetrahydropyrazolo[4,3-c]pyridine-5-carboxamide] yielded a pEC50 of 6.30 to 7.00.
`O=C(Nc1cccc(Cl)c1)N1CCc2[nH]nc(-c3ccccc3F)c2C1` [Compound 276, N-(3-chlorophenyl)-3-(2-fluorophenyl)-1,4,6,7-tetrahydropyrazolo[4,3-c]pyridine-5-carboxamide] was tested, and the pEC50 was 6.30 to 7.00.
Compound `O=C(Nc1cccc(Cl)c1)N1CCc2[nH]nc(-c3cccnc3F)c2C1` [Compound 472, N-(3-chlorophenyl)-3-(2-fluoro-3-pyridyl)-1,4,6,7-tetrahydropyrazolo[4,3-c]pyridine-5-carboxamide] has a pEC50 of 6.30 to 7.00.
